Assay results as given in patent publication US9469659B2, “Compositions and methods for improving glucose uptake” (Board of Supervisors of Louisiana State University and …, priority 2012, dated 2016).

Assays:
[1] = system: 3T3-L1 pre adipocytes; assay: Cell toxicity of compounds at various doses; type: cell-based
Procedure: For the following screens, compounds 1-5 were dissolved in DMSO. 3T3-L1 pre adipocytes were first exposed to different concentrations (5 μM, 10 μM, 20 μM, 50 μM and 100 μM) of the compounds to test for toxicity compared with DMSO control exposure. Exposure to other concentrations was followed until Day 5. Compound 2 was the most toxic at 20 μM on Day 5.

[2] = system: 3T3-L1 cells; assay: Glucose uptake under basal and insulin stimulated conditions (FIG. 2); type: cell-based; details: 24 hours exposure
Procedure: Next, glucose uptake by 3T3-L1 cells exposed to compounds 1-5 was determined at 5 μM concentration. Cells were exposed to compounds 1-5 for 24 hours and exposure to DMSO was used as the control group. 2-Deoxy glucose (2-DG) uptake was determined using the analog compounds without serum starving the cells prior to determining glucose uptake. As indicated in FIG. 1 glucose uptake in 3T3-L1 pre-adipocytes was determined by exposing cells to compounds 1-5 for 24 hours without serum starvation. All compounds show significant increase (p<0.05) in glucose uptake under basal conditions compared with the DMSO treated control cells. To confirm these observations glucose uptake was examined under basal and insulin stimulated conditions with cells exposed to compounds 1-5 for 24 hours.

[3] = 5 μM, Day 1, 3T3-L1 pre adipocytes
[4] = 5 μM, Day 2, 3T3-L1 pre adipocytes
[5] = 5 μM, Day 3, 3T3-L1 pre adipocytes
[6] = 5 μM, Day 4, 3T3-L1 pre adipocytes
[7] = 5 μM, Day 5, 3T3-L1 pre adipocytes
[8] = 10 μM, Day 1, 3T3-L1 pre adipocytes
[9] = 10 μM, Day 2, 3T3-L1 pre adipocytes
[10] = 10 μM, Day 3, 3T3-L1 pre adipocytes
[11] = 10 μM, Day 4, 3T3-L1 pre adipocytes
[12] = 10 μM, Day 5, 3T3-L1 pre adipocytes
[13] = 20 μM, Day 1, 3T3-L1 pre adipocytes
[14] = 20 μM, Day 2, 3T3-L1 pre adipocytes
[15] = 20 μM, Day 3, 3T3-L1 pre adipocytes
[16] = 20 μM, Day 4, 3T3-L1 pre adipocytes
[17] = 20 μM, Day 5, 3T3-L1 pre adipocytes
[18] = 50 μM, Day 1, 3T3-L1 pre adipocytes
[19] = 50 μM, Day 2, 3T3-L1 pre adipocytes
[20] = 100 μM, Day 1, 3T3-L1 pre adipocytes
[21] = 100 μM, Day 2, 3T3-L1 pre adipocytes

SMILES	Cell toxicity [1, 3] [%]	Cell toxicity [1, 4]	Cell toxicity [1, 5]	Cell toxicity [1, 6]	Cell toxicity [1, 7]	Cell toxicity [1, 8]	Cell toxicity [1, 9]	Cell toxicity [1, 10]	Cell toxicity [1, 11]	Cell toxicity [1, 12]	Cell toxicity [1, 13]	Cell toxicity [1, 14]	Cell toxicity [1, 15]	Cell toxicity [1, 16]	Cell toxicity [1, 17]	Cell toxicity [1, 18]	Cell toxicity [1, 19]	Cell toxicity [1, 20]	Cell toxicity [1, 21]	Glucose uptake under basal and insulin stimulated conditions [2]	other results
CC1(C)OB(c2ccc(NC(C#N)c3cc(-c4ccc(F)cc4)on3)cc2)OC1(C)C (stereo not drawn) [Compound 1]	0	0-5%	0-5%	0-5%	≧5%	5-10%	5-10%	5-10%	5-10%	5-10%	5-10%	≧10%	≧10%	10-15%	10-15%	30-40%	90-95%	>90%	95-100%	–	–
CC1(C)OB(c2ccc(NC(C#N)c3cc(-c4ccccc4)on3)cc2)OC1(C)C (stereo not drawn) [Compound 2]	0	0-5%	0-5%	10-20%	10-20%	5-10%	>10%	≧10%	30-40%	≧40%	>10%	20-30%	40-50%	60-70%	70-80%	30-40%	95-100%	>90%	95-100%	–	Toxicity (in words, ranking among compounds) [1, 17]: most toxic
Cc1cc(C(C#N)Nc2ccc(B3OC(C)(C)C(C)(C)O3)cc2)no1 (stereo not drawn) [Compound 3]	0	0-5%	0-5%	0-5%	0-5%	0-5%	>5%	≧10%	≧10%	≧10%	5-10%	15-20%	>20%	20-30%	≧30%	15-20%	90-95%	60-70%	95-100%	most significant increase	–
N#CC(Nc1ccc([B-](F)(F)F)cc1)c1cc(-c2ccc(F)cc2)on1 (stereo not drawn) [Compound 4]	0	0-5%	0-5%	0-5%	0-5%	0-5%	>5%	≧10%	≧10%	≧10%	5-10%	10-15%	≧15%	≧15%	≧15%	30-40%	90-95%	>90%	95-100%	most significant increase	–
N#CC(Nc1ccc([B-](F)(F)F)cc1)c1ccco1 (stereo not drawn) [Compound 5]	0	0-5%	0-5%	0-5%	0-5%	0-5%	>5%	≧10%	≧10%	≧10%	5-10%	10-15%	10-15%	10-15%	10-15%	>15%	90-95%	>90%	95-100%	most significant increase	–
